Results: US8084610B2, “Compositions and methods for detecting and treating tumors containing acidic areas” (priority 2006, dated 2011)
One block for each compound: values may come before it.

Assays:
tumors = details: tumor-bearing mice; reduction of about 0.3 pH units in the tumors; cited from earlier work
[1] = Titration assay of sodium salts with 5 M HCl (pKa / effective pKa)
Procedure: Typically new structures that may be suitable as advanced pH-switch components are first assessed for their pKa value in normal saline. This entails preparing the sodium salt form of the structure and dissolving it at a concentration of 20 milliMolar in 15 ml of 0.15 Molar NaCl (deareated to remove CO2). […] A plot of pH versus volume of added HCl affords the effective pKa value. It is also desirable to carry out this same titration in methanol/water (1:1 by vol) in order to get an estimate of the pKa value independent of insolubility effects.
The compound in FIG. 12a was prepared by reacting camphoric anhydride with dimethylamine. The compound in FIG. 12b was prepared by reacting camphoric anhydride with ethylamine. The sodium salts of compounds shown in FIG. 12a (designed to form an internal acid-specific H-bond) and 12b (designed to form non-acid-specific H-bonds) were titrated in aqueous solution.
The two compounds in FIG. 15 were prepared by reacting the respective anhydrides with dimethylamine, and then the sodium salts titrated in methanol/water, 1:1 by volume—in order to preclude insolubility effects impacting the titration curve.
The methyl ester of isonipocotic acid was alkylated with bromopropane and then the resultant tertiary amine oxidized to the N-oxide with meta-Chlorobenzoylperoxide. Finally, the ester was cleaved with aqueous sodium hydroxide to give structure iii in FIG. 16b. This product in its sodium salt form was titrated in water.

Compound: O=C(O)CCCc1ccc(N(CCCl)CCCl)cc1 [Chlorambucil]
improvement in tumor growth delay (tumors): 1.7 fold

Compound: CN(C)C(=O)C=CC(=O)O [FIG. 14b]
pKa value (mid-point of the transition between salt and acid) ([1]; sodium salt titrated with HCl in water / aqueous solution): below 3.0

first derivative of titration plot, minimum attributed to N-oxide moiety (pH) ([1]; sodium salt titrated in water): ~4.0
first derivative of titration plot, other minimum (pH), attributed to internal low-barrier H-bond ([1]; sodium salt titrated in water): ~5.6
Compound: CCC[N+]1([O-])CCC(C(=O)O)CC1 (stereo not shown) [structure iii in FIG. 16b, N-oxide of N-propylisonipocotic acid]
